The compounds below were run on Acinetobacter baumannii ATCC 17978 (assay: Antimicrobial susceptibility testing: 90% growth inhibitory concentration (IC90) determination). Conditions: 90% growth inhibitory concentration; Acinetobacter baumannii ATCC17978; Iso-Sensitest broth, OD 600 nm over 16h; read-out: ATCC17978 IC90.
Type: cell-based
Procedure, shortened: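 Growth of the Acinetobacter baumannii strain was followed by optical density at 600 nm every 20 minutes for 16h at 35±2° C. Inoculum was ~5×10^(5) CFU/ml in Iso-Sensitest medium, with twofold compound dilutions (e.g. 50 to 0.097 μM final). The 90% inhibitory concentration was derived in log-phase growth.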

Compound | IC90
N#CCOc1ccc(-c2cnc3c(Nc4ccc(C(=O)NCCc5nnn[nH]5)c(Cl)c4)nccn23)c(F)c1F [Example 104, 2-chloro-4-[[3-[4-(cyanomethoxy)-2,3-difluoro-phenyl]imidazo[1,2-a]pyrazin-8-yl]amino]-N-[2-(1H-tetrazol-5-yl)ethyl]benzamide] | 1100 nM
tert-butyl 3-[[[4-[[3- [4- (difluoromethoxy) phenyl]imidazo[1,2- a]pyrazin-8- yl]amino]-2-methyl- benzoyl]amino] methyl] pyrrolidine-1- carboxylate [Example 47] | 1700 nM
COc1ccc(-c2cnc3c(Nc4ccc(C(=O)NCC5CCS(=O)(=O)CC5)c(Cl)c4)nccn23)c(F)c1F [Example 106, 2-chloro-4-[[3-(2,3-difluoro-4-methoxy-phenyl)imidazo[1,2-a]pyrazin-8-yl]amino]-N-[(1,1-dioxothian-4-yl)methyl]benzamide; 2,2,2-trifluoroacetic acid] | 140 nM
COc1ccc(-c2cnc3c(Nc4ccc(C(=O)N(C)CCN5CCNCC5)c(Cl)c4)nccn23)c(F)c1F [Example 44, 2-chloro-4-[[3-(2,3-difluoro-4-methoxy-phenyl)imidazo[1,2-a]pyrazin-8-yl]amino]-N-methyl-N-(2-piperazin-1-ylethyl)benzamide; 2,2,2-trifluoroacetic acid] | 120 nM

Same assay, conditions: Acinetobacter baumannii, ATCC17978, 16 h, 90% growth inhibitory concentration; Acinetobacter baumannii ATCC17978; Iso-Sensitest broth, OD 600 nm over 16h; read-out: ATCC17978 IC90

Compound | IC90
COc1ccc(-c2cnc3c(Nc4ccc(C(=O)NCCCC[C@H](N)C(=O)O)c(C)c4)nccn23)c(F)c1F [Example 349, (2S)-2-amino-6-[[4-[[3-(2,3-difluoro-4-methoxyphenyl)imidazo[1,2-a]pyrazin-8-yl]amino]-2-methylbenzoyl]amino]hexa-noic acid;2,2,2-trifluoroacetic acid] | 1100 nM
CCc1cc(Nc2nccn3c(-c4ccc(Oc5ccccn5)c(F)c4F)cnc23)ccc1C(=O)NCC(=O)N1CCN[C@H](CO)C1 [Example 474, 4-[[3-[2,3-difluoro-4-(2-pyridyloxy)phenyl]imidazo [1,2-a]pyrazin-8-yl]amino]-2-ethyl-N-[2-[(3S)-3-(hydroxymethyl)piperazin-1-yl]-2-oxo-ethyl]benzamide] | 910 nM
CCc1cc(Nc2nccn3c(-c4ccc(OC)c(F)c4F)cnc23)ccc1C(=O)NCCNC(=O)[C@@H](N)CCCN [Example 397, N-[2-[[(2S)-2,5-diaminopentanoyl]amino]eth-yl]-4-[[3-(2,3-difluoro-4-methoxy-phenyl)imidazo[1,2-a]pyrazin-8-yl]amino]-2-ethyl-benzamide; formic acid] | 410 nM
CCc1cc(Nc2nccn3c(-c4ccc(OC)c(F)c4F)cnc23)ccc1C(=O)NCCCCC(=O)N1CCN[C@H](CO)C1 [Example 163, 4-[[3-(2,3-difluoro-4-methoxy-phenyl)imidazo[1,2-a]pyrazin-8-yl]amino]-2-ethyl-N-[5-[(3S)-3-(hydroxymethyl)piperazin-1-yl]-5-oxo-pentyl]benzamide] | 80 nM
CCc1cc(Nc2nccn3c(-c4ccc(Oc5ccccn5)c(F)c4F)cnc23)ccc1C(=O)NCCCCC(=O)N1CCN[C@H](CO)C1 [Example 477, 4-[[3-[2,3-difluoro-4-(2-pyridyloxy)phenyl]imidazo [1,2-a]pyrazin-8-yl]amino]-2-ethyl-N-[5-[(3S)-3-(hydroxymethyl)piperazin-1-yl]-5-oxo-pentyl]benzamide] | 330 nM
CCc1cc(Nc2nccn3c(-c4ccc(OC)c(F)c4F)cnc23)ccc1C(=O)NCCCCCCn1ccnc1 [Example 535, N-(6-(1H-imidazol-1-yl)hexyl)-4-((3-(2,3-difluoro-4-methoxyphenyl)imidazo[1,2-a]pyrazin-8-yl)amino)-2-ethylbenzamide] | 85 nM
CCc1cc(Nc2nccn3c(-c4ccc(Oc5ccncn5)c(F)c4F)cnc23)ccc1C(=O)NCCCNC(=O)NCCNCCCN [Example 565, N-[3-[2-(3-aminopropylamino)ethylcar-bamoylamino]propyl]-4-[[3-(2,3-difluoro-4-pyrimidin-4-yloxy-phenyl)imidazo[1,2-a]pyrazin-8-yl]amino]-2-ethyl-benzamide; formic acid] | 300 nM

Reference: patent US20230012368A1 (Hoffmann-La Roche Inc., priority 2018, published 2023)
